Key:
human P2X7R = molecular target: T1, human P2X7R (Homo sapiens, UniProt Q99572); experiment: ATP release through the P2X7 receptor in HEK293-hP2X7/pmeLUC cells, pmeLUC luminescence; type: cell-based
T1 construct: expressed in transfected cells; host or cells: HEK293 (HEK293-hP2X7/pmeLUC)
T1 sequence (Q99572 1-595): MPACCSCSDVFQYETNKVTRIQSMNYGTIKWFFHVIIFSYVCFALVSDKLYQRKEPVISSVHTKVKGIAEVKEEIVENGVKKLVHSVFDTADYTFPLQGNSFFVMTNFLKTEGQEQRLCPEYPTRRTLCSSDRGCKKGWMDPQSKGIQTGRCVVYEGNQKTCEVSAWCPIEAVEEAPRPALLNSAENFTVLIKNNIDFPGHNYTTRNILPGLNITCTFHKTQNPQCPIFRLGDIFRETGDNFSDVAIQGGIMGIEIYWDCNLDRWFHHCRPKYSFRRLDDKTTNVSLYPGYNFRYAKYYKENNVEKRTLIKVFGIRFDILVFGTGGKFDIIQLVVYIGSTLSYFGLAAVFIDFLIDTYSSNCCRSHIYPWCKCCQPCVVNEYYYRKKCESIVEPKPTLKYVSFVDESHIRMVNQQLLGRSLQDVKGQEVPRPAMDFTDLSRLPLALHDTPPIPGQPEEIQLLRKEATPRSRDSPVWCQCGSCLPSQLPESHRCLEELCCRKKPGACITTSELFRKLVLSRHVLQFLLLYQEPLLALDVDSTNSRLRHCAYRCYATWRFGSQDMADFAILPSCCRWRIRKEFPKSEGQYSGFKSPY
Description: (§1) HEK293 cells were cultured in DMEM-F12 (Sigma-Aldrich). Media were supplemented with 10% heat-inactivated FBS, 100 U/ml penicillin and 100 μg/ml streptomycin (Invitrogen corporation, San Giuliano Milanese, Italy). ACN neuroblastoma cells were cultured in DMEM supplemented with MEM non-essential amino acid solution 100× (Sigma-Aldrich). HEK293 cells were transfected with the calcium phosphate method. Cells transiently expressing the pmeLUC construct were assayed 36 hours after transfection. Clones stably expressing pmeLUC or the P2X7R were generated by culture of the transfected cells in the presence of G418 (0.8 mg/ml, added 48 hours after transfection) for 3 weeks. Stable P2X7- or pmeLUC-expressing clones were kept in the continuous presence of 0.2 mg/ml of G418 sulphate (Geneticin) (Calbiochem, la Jolla, Calif.). ACN cells were transfected with pmeLUC by lipofectamine (Invitrogen) and tested 24 hours after transfection. Briefly, cells were incubated in 250 μl serum-free transfection medium (OPTIMEM) in the presence of lipofectamine-plus-DNA (0.4 μg per well). After 3 hours incubation 1 ml of DMEM plus 10% FBS supplemented with MEM non-essential amino acid solution 100× (Sigma-Aldrich) was added. Cells were assayed 24 hours after transfection. In order to allow a high level of plasma membrane expression of the transfected constructs, cells were incubated overnight in the presence of 1 mM DTT (Mezghrani et al, 2001). Furthermore, they were also kept at room temperature (21° C.) for two hours prior to transfer into the thermostated luminometer chamber.
(§2) ATP was measured in the custom-made luminometer described by Rizzuto and co-workers (Brini et al., 1999; Jouaville et al., 1999). For experiments, cells were plated onto 13 mm coverslips and were placed in a 37° C. thermostatted chamber (diameter 15 mm, height 2 mm) and perfused with a saline solution supplemented with luciferin at a concentration of 5 μM. The chamber was held in a photomultiplier kept in a dark refrigerated (4° C.) box. Light emission was detected by a Thorn EMI photon counting board installed in an IBM-compatible computer. The board allowed storing of the data in the computer memory for further analysis. During the experiments the thermostatted chamber was continuously perfused with buffer by means of a Gilson peristaltic pump. Alternatively, ATP was measured in the supernatants using soluble luciferase in a Firezyme luminometer as previously described (Baricordi et al., 1999; Solini et al, 2004; Zanovello et al., 1990).
Early experiments carried out not only by the authors of the present invention had shown that supernatants from cells expressing the P2X7 receptor contained a high level of ATP, which was not due to an accelerated rate of cell lysis (Baricordi et al., 1999; Adinolfi et al., 2003; Solini et al., 2004). […] To test such hypothesis several HEK293 clones were generated stably transfected with the human or rat P2X7R (HEK293-hP2X7 or HEK293-rP2X7, respectively). These clones were then transfected with pmeLUC (HEK293-P2X7/pmeLUC).

HEK293-hP2X7 cells = experiment: Extracellular ATP in supernatants of HEK293-hP2X7 cells, soluble luciferase; type: cell-based; conditions: n=10, quiescent 220±34 nM
Description: as §2
(§3) As an independent proof that HEK293-P2X7 cells release a larger amount of ATP than mock-transfected HEK293 (HEK293-mock), extracellular ATP was measured in the supernatants using soluble luciferase. Quiescent HEK293-mock cells maintained an extracellular ATP concentration of 80±20 nM (n=12), compared to 220±34 nM (n=10) for HEK-hP2X7. […]

native P2X7R = molecular target: T2, native P2X7R (Homo sapiens, UniProt Q99572); experiment: ATP release from ACN neuroblastoma cells transfected with pmeLUC; type: cell-based
T2 construct: the human ACN neuroblastoma, a cell line expressing the native P2X7R; endogenous in cells; host or cells: ACN human neuroblastoma cells, transiently transfected with pmeLUC as sensor
T2 sequence (Q99572 1-595): T1 sequence (Q99572 1-595)
Description: HEK293 cells were cultured in DMEM-F12 (Sigma-Aldrich). Media were supplemented with 10% heat-inactivated FBS, 100 U/ml penicillin and 100 μg/ml streptomycin (Invitrogen corporation, San Giuliano Milanese, Italy). ACN neuroblastoma cells were cultured in DMEM supplemented with MEM non-essential amino acid solution 100× (Sigma-Aldrich). HEK293 cells were transfected with the calcium phosphate method. Cells transiently expressing the pmeLUC construct were assayed 36 hours after transfection. Clones stably expressing pmeLUC or the P2X7R were generated by culture of the transfected cells in the presence of G418 (0.8 mg/ml, added 48 hours after transfection) for 3 weeks. Stable P2X7- or pmeLUC-expressing clones were kept in the continuous presence of 0.2 mg/ml of G418 sulphate (Geneticin) (Calbiochem, la Jolla, Calif.). ACN cells were transfected with pmeLUC by lipofectamine (Invitrogen) and tested 24 hours after transfection. […]
(§4) ATP was measured in the custom-made luminometer described by Rizzuto and co-workers (Brini et al., 1999; Jouaville et al., 1999). […] Light emission was detected by a Thorn EMI photon counting board installed in an IBM-compatible computer. […] Alternatively, ATP was measured in the supernatants using soluble luciferase in a Firezyme luminometer as previously described (Baricordi et al., 1999; Solini et al, 2004; Zanovello et al., 1990).
Differences in basal levels of luminescence emission are neutralized by expressing luminescence as percentage increase over basal (FIG. 3B), however, the higher basal luminescence of HEK293-hP2X7/pmeLUC might reflect a real increased level of pericellular ATP compared to HEK293-pmeLUC, rather than a higher expression of pmeLUC. In this case, reporting luminescence as percent increase over basal would mask such a difference in the extracellular ATP concentration. To clarify this issue, total pmeLUC protein was measured by western blotting (FIG. 3C). […] To measure quantitatively surface pmeLUC expression, different clones were analyzed by FACS. […]

HEK293-pmeLUC cells = type: cell-based
Description: as §1, §4

HEK293-mock cells = experiment: Extracellular ATP in supernatants of HEK293-mock cells, soluble luciferase; type: cell-based
Description: as §2, §3

rat P2X7R = molecular target: T3, rat P2X7R (Rattus norvegicus, UniProt Q64663); experiment: ATP release through the P2X7 receptor in HEK293-rP2X7/pmeLUC cells, pmeLUC luminescence; type: cell-based
T3 construct: expressed in transfected cells; host or cells: HEK293 (HEK293-rP2X7/pmeLUC)
T3 sequence (Q64663 1-595): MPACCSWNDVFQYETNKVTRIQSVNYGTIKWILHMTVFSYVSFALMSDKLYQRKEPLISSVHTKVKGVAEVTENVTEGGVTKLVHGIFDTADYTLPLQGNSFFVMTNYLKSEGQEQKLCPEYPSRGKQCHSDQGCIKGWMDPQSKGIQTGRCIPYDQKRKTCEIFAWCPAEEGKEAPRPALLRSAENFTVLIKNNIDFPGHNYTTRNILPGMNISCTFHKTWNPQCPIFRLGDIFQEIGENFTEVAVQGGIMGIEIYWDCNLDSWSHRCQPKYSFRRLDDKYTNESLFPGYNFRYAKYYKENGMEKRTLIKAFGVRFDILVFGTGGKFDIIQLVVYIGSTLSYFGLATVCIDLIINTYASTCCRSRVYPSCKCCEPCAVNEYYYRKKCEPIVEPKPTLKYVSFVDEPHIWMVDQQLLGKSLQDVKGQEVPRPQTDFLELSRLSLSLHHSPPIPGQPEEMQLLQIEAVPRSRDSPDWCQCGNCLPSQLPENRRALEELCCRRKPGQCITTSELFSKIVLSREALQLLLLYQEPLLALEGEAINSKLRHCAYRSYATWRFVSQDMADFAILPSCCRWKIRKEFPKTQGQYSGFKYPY
Description: as §1
as §4, with “1990). […]” for “1990).”

pmeLUC = molecular target: T4, pmeLUC (Photinus pyralis, UniProt P08659, N119G/N50D); experiment: Response of HEK293-pmeLUC cells to extracellular nucleotides (affinity and selectivity of the pmeLUC probe, luminescence); type: cell-based
T4 construct: expressed in transfected cells
Description: as §2
Affinity of pmeLUC for ATP is rather low, with a threshold of about 10 μM, however, subsequent ATP additions elicit further increases in light emission that allow building a calibration curve (FIG. 2B). Importantly, pmeLUC is insensitive to all other nucleotides tested (ADP, UTP, UDP and GTP) (FIG. 2A).

[1] = tested on: A549 pulmonary epithelial cells; experiment: ATP release / photon emission in A549 pulmonary epithelial cells expressing pmeLUC probe; type: cell-based, human; conditions: ATP 5 μM to 1 mM, FIG. 7A
Description: (§5) Cells cultured in flasks for cell culture (75 cm^2) were transfected with a vector containing the produced chimeric probe, by transfection techniques more suitable for the cell line under examination. As experimental model established macrophage cells, named J774, and established pulmonary epithelial cells, named […], were used after being transfected with pmeLUC probe using TransFectin (Biorad) that ensure the major percent of positive cells for these cell lines.
(§6) 36 hours after transfection cells were removed from the bottom of flasks for trypsinization. Cell suspension was transferred in a Falcon tube (from 15 to 50 ml) and centrifuged at 1200 rpm at 20° C. and finally cell precipitate was re-suspended in DMEM medium supplemented with DTT (1 mM).
(§7) 50 μl of suspension containing transfected cells (corresponding to about 50.000 cells) were seeded in each well of the plate. Cells were incubated overnight.
(§8) The day after seeding cells were incubated with a saline solution (KRB: Krebs-Ringer modified buffer: 125 mM NaCl, 5 mM KCl, 1 mM Na3PO4, 1 mM MgSO4, 1 mM CaCl2, 5.5 mM glucose, 20 mM HEPES, pH 7.4, 37° C.) supplemented with luciferin (5 μM) and were directly contacted with a photomultiplier measuring photon emission by luciferase.

J774 macrophage cells = experiment: ATP release / photon emission in J774 macrophage cells expressing pmeLUC probe; type: cell-based, mouse; conditions: ATP 5 μM to 1 mM, FIG. 6A
Description: as §5, §6, §7, §8

T4 sequence (P08659 with tags, fused parts or gaps N50D/N119G): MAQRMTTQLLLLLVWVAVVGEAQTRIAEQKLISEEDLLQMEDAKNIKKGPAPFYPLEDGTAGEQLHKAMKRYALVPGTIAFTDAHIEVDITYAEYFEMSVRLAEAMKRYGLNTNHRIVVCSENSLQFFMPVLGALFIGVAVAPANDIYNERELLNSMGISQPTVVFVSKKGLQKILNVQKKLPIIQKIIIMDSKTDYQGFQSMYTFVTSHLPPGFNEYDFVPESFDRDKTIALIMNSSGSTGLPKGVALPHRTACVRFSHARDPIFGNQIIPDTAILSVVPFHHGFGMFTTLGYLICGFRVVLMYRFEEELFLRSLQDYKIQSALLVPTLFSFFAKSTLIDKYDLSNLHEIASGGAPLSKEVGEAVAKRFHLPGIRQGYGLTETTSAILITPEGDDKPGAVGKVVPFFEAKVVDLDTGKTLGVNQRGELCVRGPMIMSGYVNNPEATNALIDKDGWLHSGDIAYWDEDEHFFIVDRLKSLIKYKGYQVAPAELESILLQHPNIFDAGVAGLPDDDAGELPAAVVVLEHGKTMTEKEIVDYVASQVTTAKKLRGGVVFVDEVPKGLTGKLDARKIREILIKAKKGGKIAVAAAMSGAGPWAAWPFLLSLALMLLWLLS

For Nc1ncnc2c1ncn2[C@@H]1O[C@H](COP(=O)(O)OP(=O)(O)OP(=O)(O)O)[C@@H](OC(=O)c2ccc(C(=O)c3ccccc3)cc2)[C@H]1O [BzATP, Benzoyl ATP], the “luminescence increase on addition of BzATP” value (human P2X7R; HEK293-hP2X7/pmeLUC cells) was “large luminescence increase”, the “peak ATP concentration from calibration of BzATP triggered luminescence increase” value (human P2X7R; HEK293-hP2X7/pmeLUC cells) was “about 250 μM” and the “extracellular ATP level in supernatants after addition of BzATP” value (HEK293-hP2X7 cells) was “about 400±55 nM”. For the same compound, the “ATP release induced by BzATP” value (native P2X7R; ACN neuroblastoma cells, FIG. 3E) was “large ATP release”, the “luminescence increase on addition of BzATP” value (HEK293-pmeLUC cells; HEK293-pmeLUC cells (no P2X7R)) was “not” and the “effect of BzATP on extracellular ATP in supernatants” value (HEK293-mock cells) was “no effect”. The “luminescence increase on addition of BzATP” value (rat P2X7R; HEK293-rP2X7/pmeLUC cells (not shown)) was “large luminescence increase”.
In the case of Nc1ncnc2c1ncn2[C@@H](C=O)O[C@@H](C=O)COP(=O)(O)OP(=O)(O)OP(=O)(O)O [oATP, oxidized ATP], the “basal luminescence after oATP pretreatment” value (human P2X7R; HEK293-hP2X7/pmeLUC, n=8, untreated 12250±1500 cps) is reported as 5800±1300 cps, the “ATP-induced luminescence increase in oATP-treated cells” value (human P2X7R; HEK293-hP2X7/pmeLUC, pre-treatment with oATP, FIG. 4B) is reported as “matches exactly that of HEK293-pmeLUC” and the “block of the BzATP-triggered luminescence increase” value (human P2X7R; pre-treatment with 300 μM oATP for 2 hours, HEK293-hP2X7/pmeLUC) is reported as “fully blocked”. For the same compound, the “block of BzATP-induced ATP release” value (native P2X7R; ACN cells, 300 μM oATP) was “fully blocked”, the “basal luminescence total level after treatment with oATP” value (native P2X7R; ACN cells, n=5, before treatment 3500±350 cps) was 1500±260 cps and the “ATP-induced luminescence increase in oATP-treated cells” value (rat P2X7R; HEK293-rP2X7/pmeLUC, pre-treatment with oATP, FIG. 4A) was “matches exactly that of HEK293-pmeLUC”. For the same compound, the “effect on ATP-dependent luminescence increase (calibration curve; inhibition of luciferase itself)” value (pmeLUC; calibration curve in presence and absence of oATP, not shown) was “not affected”.
Nc1ncnc2c1ncn2[C@@H]1O[C@H](COP(=O)(O)OP(=O)(O)OP(=O)(O)O)[C@@H](O)[C@H]1O [ATP] was tested, and the “ATP concentration at which luminescence increase over control cells is detectable” value (human P2X7R; HEK293 cells transfected with human P2X7R, FIG. 4B) was “higher than 100 μM”, the “photon emission by the pmeLUC probe on addition of outer ATP” value [1] was “proportional to ATP concentration applied” and the “photon emission by the pmeLUC probe on addition of outer ATP” value (J774 macrophage cells) was “proportional to ATP concentration applied”. For the same compound, the “ATP concentration at which extra-increase in luminescence over control cells is detectable” value (rat P2X7R; HEK293 cells transfected with rat P2X7R, FIG. 4A) was 10 to 50 µM and the “threshold of pmeLUC for ATP (affinity)” value (pmeLUC; HEK293-pmeLUC cells, luminescence percent increase over basal) was “about 10 μM”.
In the case of NCCc1c[nH]cn1 [histamine], the “ATP release triggered by agonists of G protein-coupled receptors” value (HEK293-pmeLUC cells; HEK293-pmeLUC cells, not shown) is reported as “negligible ATP release”.

From patent US20100015603A1, “Chimeric proteins for measuring atp concentrations in pericellular space and related screening method” (priority 2005, published 2010)
